The values that follow come from ChEMBL document CHEMBL1909046, “DrugMatrix in vitro pharmacology data”.

By IC50 is commonly meant the concentration needed to halve the response being measured. A word on the Ki: it is a dissociation constant, usually derived from enzyme kinetics or from competition with a known ligand.

Data set [1] addresses T1, Amine oxidase [flavin-containing] A (Homo sapiens, UniProt P21397).
T1 sequence (P21397 whole entry): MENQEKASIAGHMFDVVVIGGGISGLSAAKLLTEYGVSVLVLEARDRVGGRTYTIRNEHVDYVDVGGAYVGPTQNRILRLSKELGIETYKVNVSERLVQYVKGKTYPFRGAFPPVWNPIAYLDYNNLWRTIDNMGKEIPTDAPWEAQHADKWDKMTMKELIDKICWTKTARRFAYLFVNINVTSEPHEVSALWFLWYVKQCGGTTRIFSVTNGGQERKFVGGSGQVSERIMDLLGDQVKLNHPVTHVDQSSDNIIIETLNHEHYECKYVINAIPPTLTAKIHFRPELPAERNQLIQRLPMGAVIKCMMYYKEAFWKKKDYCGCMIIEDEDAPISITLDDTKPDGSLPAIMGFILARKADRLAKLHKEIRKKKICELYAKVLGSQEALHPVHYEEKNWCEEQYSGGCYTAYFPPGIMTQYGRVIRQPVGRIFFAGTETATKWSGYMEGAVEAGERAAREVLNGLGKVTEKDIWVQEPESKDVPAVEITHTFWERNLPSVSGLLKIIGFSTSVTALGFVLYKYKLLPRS
Briefly: DRUGMATRIX: Monoamine Oxidase MAO-A enzyme inhibition (substrate: Kynuramine). Details: species or system BTI-TN-5B1-4. The conditions noted are these: bti-tn-5b1-4; Not Active = under 50% inhibition at 10 µM.

The target of data set [2] is T2, Neuropeptide Y receptor type 2 (Homo sapiens, UniProt P49146). Also: in other assays of this panel Not Active means under 50% inhibition at 10 µM.
T2 sequence (P49146 whole entry): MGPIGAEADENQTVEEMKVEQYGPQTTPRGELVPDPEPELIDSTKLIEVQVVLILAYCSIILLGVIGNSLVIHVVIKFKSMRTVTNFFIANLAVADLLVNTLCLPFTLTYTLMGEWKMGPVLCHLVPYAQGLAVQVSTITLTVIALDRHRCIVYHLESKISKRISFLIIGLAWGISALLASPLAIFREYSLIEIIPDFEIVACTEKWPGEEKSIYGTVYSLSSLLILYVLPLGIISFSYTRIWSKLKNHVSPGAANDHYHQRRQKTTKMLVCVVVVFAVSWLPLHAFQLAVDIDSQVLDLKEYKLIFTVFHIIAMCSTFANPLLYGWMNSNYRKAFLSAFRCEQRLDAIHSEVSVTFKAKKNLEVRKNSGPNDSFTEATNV
Type of data set: cell membranes, Membrane. The conditions noted are these: kan-ts.

Another data set addresses Cytochrome P450 2C19 (Homo sapiens, UniProt P33261). The note with it: bti-tn-5b1-4.
A further data set concerns the target Melanocortin receptor 4 (Homo sapiens, UniProt P32245). The class given is cell membranes, Membrane. The note with it: hek293. Also: in other assays of this panel Not Active means under 50% inhibition at 10 µM.
The target in data set [3] is 5-hydroxytryptamine receptor 1B (Rattus norvegicus, UniProt P28564). The class given is cell membranes, Wistar, Cerebral cortex, Membrane. Also: in other assays of this panel Not Active means under 50% inhibition at 10 µM.
Another data set has as its target Cytochrome P450 2D6 (Homo sapiens, UniProt P10635). The note with it: bti-tn-5b1-4. Also: in other assays of this panel Not Active means under 50% inhibition at 10 µM.
The target in data set [4] is T3, Neuropeptide Y receptor type 1 (Homo sapiens, UniProt P25929). Also: in other assays of this panel Not Active means under 50% inhibition at 10 µM.
T3 sequence (P25929 whole entry): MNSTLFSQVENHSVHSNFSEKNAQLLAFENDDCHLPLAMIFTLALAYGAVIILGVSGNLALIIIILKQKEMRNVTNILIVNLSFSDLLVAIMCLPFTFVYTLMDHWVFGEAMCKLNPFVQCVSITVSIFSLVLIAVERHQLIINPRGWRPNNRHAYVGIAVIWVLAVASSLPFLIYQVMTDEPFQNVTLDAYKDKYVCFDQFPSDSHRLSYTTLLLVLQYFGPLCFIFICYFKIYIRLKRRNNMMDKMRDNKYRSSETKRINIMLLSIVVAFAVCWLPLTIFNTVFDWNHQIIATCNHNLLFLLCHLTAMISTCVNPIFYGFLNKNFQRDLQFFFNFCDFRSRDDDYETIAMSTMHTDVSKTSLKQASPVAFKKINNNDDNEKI
The class given is cell membranes, Membrane. The conditions noted are these: sk-n-mc.
For Ki in this document: in other assays of this panel Not Active means under 50% inhibition at 10 µM.

Cytochrome P450 2D6, sequence (P10635 whole entry): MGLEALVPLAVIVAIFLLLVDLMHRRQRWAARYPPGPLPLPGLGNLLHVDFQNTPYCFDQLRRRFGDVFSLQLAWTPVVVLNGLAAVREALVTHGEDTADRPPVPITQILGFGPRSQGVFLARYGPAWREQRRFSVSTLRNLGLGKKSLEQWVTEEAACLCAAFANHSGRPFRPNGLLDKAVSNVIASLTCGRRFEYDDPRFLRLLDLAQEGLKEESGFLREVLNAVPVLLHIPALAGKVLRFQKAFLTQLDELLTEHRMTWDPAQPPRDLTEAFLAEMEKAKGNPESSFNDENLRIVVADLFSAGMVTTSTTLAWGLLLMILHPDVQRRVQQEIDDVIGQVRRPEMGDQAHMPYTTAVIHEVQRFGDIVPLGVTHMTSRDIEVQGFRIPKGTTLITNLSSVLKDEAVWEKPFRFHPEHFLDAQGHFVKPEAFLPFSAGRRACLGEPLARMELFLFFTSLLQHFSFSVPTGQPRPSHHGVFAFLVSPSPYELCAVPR
Cytochrome P450 2C19, sequence (P33261 whole entry): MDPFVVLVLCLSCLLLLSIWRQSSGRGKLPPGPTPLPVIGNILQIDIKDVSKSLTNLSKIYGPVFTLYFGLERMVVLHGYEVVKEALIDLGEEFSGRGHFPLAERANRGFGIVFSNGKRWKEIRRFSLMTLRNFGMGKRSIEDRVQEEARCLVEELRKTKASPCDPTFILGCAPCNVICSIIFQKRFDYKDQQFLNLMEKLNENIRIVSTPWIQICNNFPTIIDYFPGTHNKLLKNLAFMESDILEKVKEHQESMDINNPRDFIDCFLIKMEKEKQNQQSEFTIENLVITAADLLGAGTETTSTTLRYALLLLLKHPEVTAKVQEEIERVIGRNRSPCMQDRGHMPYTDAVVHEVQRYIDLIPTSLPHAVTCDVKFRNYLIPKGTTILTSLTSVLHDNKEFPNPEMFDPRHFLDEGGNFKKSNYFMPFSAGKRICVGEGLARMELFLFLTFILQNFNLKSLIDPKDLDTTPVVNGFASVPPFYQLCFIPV
Melanocortin receptor 4, sequence (P32245 whole entry): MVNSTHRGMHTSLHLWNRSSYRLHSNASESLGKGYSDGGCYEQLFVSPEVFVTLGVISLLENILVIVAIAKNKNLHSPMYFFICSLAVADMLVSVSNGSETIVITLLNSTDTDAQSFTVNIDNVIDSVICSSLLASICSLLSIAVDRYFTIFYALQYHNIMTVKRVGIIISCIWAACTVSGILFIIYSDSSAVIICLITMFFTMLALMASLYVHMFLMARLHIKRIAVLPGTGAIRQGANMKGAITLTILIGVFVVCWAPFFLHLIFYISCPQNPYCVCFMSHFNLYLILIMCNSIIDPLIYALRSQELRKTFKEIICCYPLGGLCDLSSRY
5-hydroxytryptamine receptor 1B, sequence (P28564 whole entry): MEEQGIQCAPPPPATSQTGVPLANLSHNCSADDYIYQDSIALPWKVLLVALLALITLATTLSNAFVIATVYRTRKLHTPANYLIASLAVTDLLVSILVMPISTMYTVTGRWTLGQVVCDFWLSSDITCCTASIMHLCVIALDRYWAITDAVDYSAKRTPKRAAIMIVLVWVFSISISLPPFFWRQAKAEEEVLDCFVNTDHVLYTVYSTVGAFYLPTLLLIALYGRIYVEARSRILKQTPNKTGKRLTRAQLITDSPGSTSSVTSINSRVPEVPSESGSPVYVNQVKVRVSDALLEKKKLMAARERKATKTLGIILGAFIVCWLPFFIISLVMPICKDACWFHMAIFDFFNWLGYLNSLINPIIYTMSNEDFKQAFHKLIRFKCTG

As to `Clc1cc2c(cc1Cl)Oc1cc(Cl)c(Cl)cc1O2` [2,3,7,8-TETRACHLORODIBENZO-P-DIOXIN], the IC50 entry (in data set [1]; in data set [2]; at Cytochrome P450 2C19; against Melanocortin receptor 4; in data set [3]; against Cytochrome P450 2D6) was “Not Active” in each case. Also, the IC50 result in data set [4] is listed as “Not Active”. Moreover, the Ki result at Cytochrome P450 2C19 and on Cytochrome P450 2D6 was “Not Active” in each case.

Consider `C=C1/C(=C\C=C2/CCC[C@]3(C)[C@@H]([C@H](C)CCCC(C)C)CC[C@@H]23)C[C@@H](O)C[C@@H]1O` [ALFACALCIDOL], for which the IC50 result (in data set [1]; in data set [2]; against Cytochrome P450 2C19; against Melanocortin receptor 4; in data set [3]; on Cytochrome P450 2D6) was “Not Active” throughout. Further, in data set [4], the IC50 entry is “Not Active”. Besides, the Ki result on Cytochrome P450 2C19 and at Cytochrome P450 2D6 was “Not Active” in each case.

As for `CCCCCC[C@H]1C(=O)O[C@H](C)[C@H](NC(=O)c2cccc(NC=O)c2O)C(=O)O[C@@H](C)[C@@H]1OC(=O)CC(C)C` [ANTIMYCIN A], the IC50 entry (in data set [1]; in data set [2]; against Cytochrome P450 2C19; at Melanocortin receptor 4; in data set [3]; against Cytochrome P450 2D6) was “Not Active” each time. Further, in data set [4], the IC50 entry was “Not Active”. Further, the Ki entry on Cytochrome P450 2C19 and on Cytochrome P450 2D6 was “Not Active” each time.

In the case of `CO[C@H]1[C@@H](O)[C@H](N)[C@@H](O[C@H]2O[C@H]([C@H](C)N)CC[C@H]2N)[C@H](O)[C@@H]1N(C)C(=O)CN` [ASTROMICIN], the half-inhibitory concentration (IC50) result (in data set [1]; in data set [2]; against Cytochrome P450 2C19; on Melanocortin receptor 4; in data set [3]; on Cytochrome P450 2D6) was “Not Active” in each case. In addition, in data set [4], the IC50 result is on record as “Not Active”. Further, the Ki entry at Cytochrome P450 2C19 and on Cytochrome P450 2D6 was “Not Active” in each case.

As to `[N-]=[N+]=CC(=O)OC[C@H](N)C(=O)O` [AZASERINE], the IC50 entry (in data set [1]; in data set [2]; on Cytochrome P450 2C19; against Melanocortin receptor 4; in data set [3]; against Cytochrome P450 2D6) was “Not Active” in each case. The IC50 entry in data set [4] is reported as “Not Active”. Moreover, the Ki entry on Cytochrome P450 2C19 and on Cytochrome P450 2D6 was “Not Active” throughout.

As to `CC[C@H]1OC(=O)[C@H](C)[C@@H](O[C@H]2C[C@@](C)(OC)[C@@H](O)[C@H](C)O2)[C@H](C)[C@@H](O[C@@H]2O[C@H](C)C[C@H](N(C)C)[C@H]2O)[C@](C)(O)C[C@@H](C)CN(C)[C@H](C)[C@@H](O)[C@]1(C)O` [AZITHROMYCIN], the IC50 entry (in data set [1]; in data set [2]; at Cytochrome P450 2C19; at Melanocortin receptor 4; in data set [3]; on Cytochrome P450 2D6) was “Not Active” throughout. Also, the IC50 result in data set [4] is recorded as “Not Active”. The Ki result on Cytochrome P450 2C19 and on Cytochrome P450 2D6 was “Not Active” each time.

Turning to `CC(C)(C)c1ccc(S(=O)(=O)/C=C/C#N)cc1` [BAY-11-7085], the IC50 entry (in data set [1]; in data set [2]; against Cytochrome P450 2C19; against Melanocortin receptor 4; in data set [3]; against Cytochrome P450 2D6) was “Not Active” each time. The IC50 result in data set [4] is recorded as “Not Active”. In addition, the Ki entry on Cytochrome P450 2C19 and on Cytochrome P450 2D6 was “Not Active” each time.

In the case of `CCc1oc2ccccc2c1C(=O)c1cc(Br)c(O)c(Br)c1` [BENZBROMARONE], the IC50 entry (in data set [1]; in data set [2]; against Cytochrome P450 2C19; against Melanocortin receptor 4; in data set [3]; on Cytochrome P450 2D6) was “Not Active” each time. The IC50 entry in data set [4] is “Not Active”. The Ki result on Cytochrome P450 2C19 and at Cytochrome P450 2D6 was “Not Active” each time.

For `O=c1cc(-c2ccccc2)oc2ccc3ccccc3c12` [BETA-NAPHTHOFLAVONE], the IC50 entry (in data set [1]; in data set [2]; at Cytochrome P450 2C19; at Melanocortin receptor 4; in data set [3]; at Cytochrome P450 2D6) was “Not Active” each time. Besides, in data set [4], the IC50 result is reported as “Not Active”. Also, the Ki result on Cytochrome P450 2C19 and at Cytochrome P450 2D6 was “Not Active” throughout.

For the compound `CC(C)C[C@H]1C(=O)N2CCC[C@H]2[C@]2(O)O[C@](NC(=O)[C@@H]3C=C4c5cccc6[nH]c(Br)c(c56)C[C@H]4N(C)C3)(C(C)C)C(=O)N12` [BROMOCRIPTINE], the IC50 result in data set [1] was “Not Active”; in data set [2], “Not Active”; on Cytochrome P450 2C19, “Not Active”; on Melanocortin receptor 4, “Not Active”; in data set [3] (read-out: IC50) it was 0.103 µM; against Cytochrome P450 2D6 it was “Not Active”. The IC50 entry in data set [4] was “Not Active”. Besides, the Ki entry at Cytochrome P450 2C19 was “Not Active”; in data set [3] (read-out: Ki), 0.047 µM; at Cytochrome P450 2D6 it was “Not Active”.

As for `CS(=O)(=O)OCCCCOS(C)(=O)=O` [BUSULFAN], the IC50 entry (in data set [1]; in data set [2]; on Cytochrome P450 2C19; on Melanocortin receptor 4; in data set [3]; against Cytochrome P450 2D6) was “Not Active” in each case. The IC50 result in data set [4] was “Not Active”. For the same compound, the Ki entry at Cytochrome P450 2C19 and on Cytochrome P450 2D6 was “Not Active” throughout.

`O=C(/C=C/c1ccc(O)c(O)c1)OCCc1ccccc1` [CAFFEIC ACID PHENETHYL ESTER]: the 50% inhibitory concentration (IC50) result (in data set [1]; in data set [2]; against Cytochrome P450 2C19; against Melanocortin receptor 4; in data set [3]; at Cytochrome P450 2D6) was “Not Active” each time. In data set [4], the IC50 entry was “Not Active”. Also, the Ki entry on Cytochrome P450 2C19 and on Cytochrome P450 2D6 was “Not Active” throughout.

Regarding `COc1cc(CNC(=O)CCCC/C=C/C(C)C)ccc1O` [CAPSAICIN], the IC50 result (in data set [1]; in data set [2]; against Cytochrome P450 2C19; on Melanocortin receptor 4; in data set [3]; against Cytochrome P450 2D6) was “Not Active” in each case. The IC50 entry in data set [4] is listed as “Not Active”. Besides, the Ki result at Cytochrome P450 2C19 and at Cytochrome P450 2D6 was “Not Active” throughout.

Take `NC(=O)N1c2ccccc2C=Cc2ccccc21` [CARBAMAZEPINE]: the IC50 result (in data set [1]; in data set [2]; against Cytochrome P450 2C19; at Melanocortin receptor 4; in data set [3]; against Cytochrome P450 2D6) was “Not Active” in each case. Further, the IC50 result in data set [4] was “Not Active”. Further, the Ki result on Cytochrome P450 2C19 and on Cytochrome P450 2D6 was “Not Active” in each case.

As to `CCOC(=O)n1ccn(C)c1=S` [CARBIMAZOLE], the IC50 entry (in data set [1]; in data set [2]; at Cytochrome P450 2C19; against Melanocortin receptor 4; in data set [3]; against Cytochrome P450 2D6) was “Not Active” each time. In addition, the IC50 entry in data set [4] is given as “Not Active”. Also, the Ki entry on Cytochrome P450 2C19 and at Cytochrome P450 2D6 was “Not Active” each time.

As for `Oc1ccccc1O` [CATECHOL], the IC50 entry (in data set [1]; in data set [2]; on Cytochrome P450 2C19; at Melanocortin receptor 4; in data set [3]; against Cytochrome P450 2D6) was “Not Active” in each case. Besides, the IC50 entry in data set [4] is on record as “Not Active”. Besides, the Ki result on Cytochrome P450 2C19 and on Cytochrome P450 2D6 was “Not Active” in each case.

Regarding `CO[C@@]1(NC(=O)CSCC#N)C(=O)N2C(C(=O)O)=C(CSc3nnnn3C)CS[C@@H]21` [CEFMETAZOLE], the IC50 result (in data set [1]; in data set [2]; at Cytochrome P450 2C19; against Melanocortin receptor 4; in data set [3]; against Cytochrome P450 2D6) was “Not Active” throughout. Besides, the IC50 result in data set [4] is reported as “Not Active”. Further, the Ki entry at Cytochrome P450 2C19 and on Cytochrome P450 2D6 was “Not Active” in each case.
